Results: patent publication US20080318992A1, “METHOD OF USING A PKC INHIBITOR TO REVERSE PREFRONTAL CORTICAL DECLINES” (YALE UNIVERSITY, priority 2007, published 2008)
Read-outs that look alike come from different tables or passages of the source.

Assays:
[1] = test system: rat medial prefrontal cortex; settings: systemic administration and infusions directly to the rat medial prefrontal cortex via implanted cannula; cited from earlier work
aged rats = settings: for change in percent-correct from mean 2-day baseline: 45 min prior to testing, N=5 aged rats
aged rhesus monkeys = experiment: Spatial delayed response task (working memory) in aged rhesus monkeys; format: in vivo, rhesus monkeys (Macaca mulatta); settings: for delayed response performance: 1 h prior to testing
Description: Performance on this task is reliant upon the integrity of the dorsolateral prefrontal cortex (Goldman-Rakic, 1987) and is consistently impaired in aged rhesus monkey (Bartus, et al., 1978; Rapp and Amaral, 1989).
The present study used 13 aged female rhesus monkeys (Macaca mulatta) ranging in age from 18 to 35 years at the time of testing. Actual birthdates were not available for several of the wild-caught animals and ages were estimated based on health records, teeth, and known history; several had been in the Yale University colony for more than 15 years. Monkeys were individually housed and maintained on a diet of Purina monkey chow (St. Louis, Mo.) supplemented with fruit.
Animals were tested at the same time of day immediately prior to feeding. Highly palatable food rewards (e.g., peanuts, raisins, or chocolate chips) were utilized during testing to minimize the need for dietary regulation. Animals were tested twice a week with 3-4 days separating each test session (e.g., Monday and Thursday). Cognitive testing of monkeys occurred in a Wisconsin General Testing Apparatus (WGTA) situated in a sound-attenuating room. Background masking noise (60 dB, wideband) was used to minimize auditory distractions.
The monkeys were trained on the spatial delayed response task as described previously (Arnsten, A. F., et al., J. Neurosci. (1988) δ: 4287-4298). For the delayed response task, the animal watched as the experimenter baited one of several food-wells with a food reward. The number of food-wells varied from two to four wells, depending on the monkey's performance level and experience with the task. Care was taken by the experimenter to ensure that the animal attended the baiting procedure. After baiting, food-wells were covered with identical plaques, and an opaque screen was lowered between the animal and the food-wells for a specified delay. At the end of the delay, the screen was raised and the animal was allowed to choose. Reward was quasi-randomly distributed between the wells. Five delay lengths (referred to as delays A through E) were quasi-randomly distributed over 30 trials. The shortest of these delays was ˜2 s (the “0” s, A delay). The remaining delays were titrated for individual monkeys such that each monkey maintained a baseline performance of 60-73% correct. For example, the delays for one animal might be A=0, B=5, C=10, D=15, and E=20 s.
Data were analyzed by comparing performance following treatment using a one-way repeated-measures ANOVA. […] Values were represented as means±SEM. Linear relationships between treatment response at the optimal dose of CHEL and age of the monkey (years) were analyzed in 10 monkeys with known birthdates using Pearson's test. In all cases, an α level of 0.05 was considered statistically significant.
All animals received all treatments conditions, with at least 7 days between treatments. The order of treatment administration was quasi-randomized.

[2] = systemic administration; cited from earlier work

In the case of `COc1ccc2c(c[n+](C)c3c4cc5c(cc4ccc23)OCO5)c1OC` [CHEL, Chelerythrine], the “stress induced working memory impairments” value [1] is given as “capable of reversing stress induced working memory impairments”, the “change in percent-correct from mean 2-day baseline” value (aged rats; 0.3 mg/kg subcutaneous, p=0.691 vs vehicle) is given as 8.6±5.4 % improvement and the “change in percent-correct from mean 2-day baseline” value (aged rats; 1.0 mg/kg subcutaneous, p=0.047 vs vehicle) is given as 26±6.4 % improvement. The “performance times (non-specific motor effects)” value (aged rats; 0.3 or 1.0 mg/kg subcutaneous, data not shown) was “performance times did not differ as a result of treatment”, the “performance of 3 oldest monkeys better than 3 youngest monkeys” value (aged rhesus monkeys; 0.3 μg/kg oral) was > 20% and the delayed response performance (aged rhesus monkeys; 0.3 μg/kg oral, N=13 aged monkeys, p=0.013 vs vehicle) was 74.5±2.6 % correct. For the same compound, the “spatial working memory performance 4 hours after oral administration” value (aged rhesus monkeys; 0.3 ug/kg oral, 4 hrs after administration, p=0.012 compared to vehicle (FIG. 5)) was “improved performance”, the “performance of the 3 oldest monkeys” value (aged rhesus monkeys; 0.3 μg/kg oral, 3 oldest monkeys, mean age 32.3 years) was 85.6±4.4 % correct and the “performance of the 3 youngest aged monkeys” value (aged rhesus monkeys; 0.3 μg/kg oral, 3 youngest aged monkeys, mean age 20.7 years) was 65.0±4.8 % correct. For the same compound, the delayed response performance (aged rhesus monkeys; 3.0 μg/kg oral, N=13, p=0.151 vs vehicle) was 71.5±1.9 % correct, the delayed response performance (aged rhesus monkeys; 30.0 μg/kg oral, N=13, p=0.406 vs vehicle) was 66.1±1.8% and the “spatial working memory performance at best dose” value (aged rhesus monkeys; individual best dose for all monkeys, oral, 4 hours, p=0.001 (FIG. 5)) was “reliably improved performance”. For the same compound, the “serious deficits at high doses” value (aged rhesus monkeys; oral, even at high doses (150 ug/kg), 4 hours (FIG. 5)) was “no serious deficits were found” and the “working memory impairments following administration of cirazoline” value [2] was “reverse working memory impairments”.
